Series [1] concerns rats. Description: hEPO expression in rats after intravenous administration. The series is classed as in vivo, rat. Particulars: for hEPO expression: rat. On the procedure:
(§1) The expression of hEPO and cytokine induction in rats intravenously administered a nanoparticle composition at a dose of 2.0 mpk was measured at 6 h.
The expression of hEPO in rats intravenously administered a nanoparticle composition at a dose of 0.2 mpk or 2.0 mpk was measured at 6 hours. Table 16 summarize the ratio of hEPO expression levels using various nanoparticle compositions as compared to the hEPO expression level using MC3 formulation and the lipid levels in the liver measured 48 hours after administration, as described above. Tables 17 and 18 summarize the lipid levels in the liver and spleen measured 48 hours after administration of Compounds 28, 33, 53, and 54. Liver and spleen levels represent the average values calculated for 3 rats in each group. As is shown in Tables 17 and 18, less than 10% of Compounds 28, 33, 53, and 54 remained in the liver after 48 hours, while greater than 60% of MC3 remained.
(§2) Table 19 summarizes the hEPO expression, IP-10 induction, liver and spleen levels, and alanine aminotransferase (ALT) and aspartate aminotransferase (AST) measured upon intravenous administration of formulations including Compounds 48, 49, and 50 to rat at 0.2 and 2 mpk and hEPO mRNA. hEPO concentrations were measured 6 hours after administration, while cytokine induction and liver and spleen levels were measured 48 hours after administration. hEPO and IP-10 concentrations are presented in pg/ml, while liver levels are provided in ng/g. ALT and AST levels are presented in international units.
The expression of hEPO induced by intravenous administration to rats of nanoparticle compositions at various doses was measured at 2, 4, 6, 8, 24, and 48 hour time points. FIGS. 3-6 respectively summarize the hEPO expression measured upon intravenous administration of formulations including Compounds 26, 18, 25, and MC3 to rat at various doses. The lipid levels of Compound 26 in the liver after 48 hours were about 19%.
The expression of hEPO and lipid levels in the liver and spleen in rats intravenously administered a nanoparticle composition at a dose of 0.2 mpk was measured at various timepoints. Compounds 18 and 25 were selected for comparison with MC3. Lipids were formulated according to the standard MC3 formulation described above. Rats were administered intravenously a single 0.2 mpk dose and expression monitored at 0.25, 0.5, 1, 2, 4, 8, 24, and 48 hours after administration. […]

Series [2] relates to mice. Briefly: Luc expression (total flux) after intramuscular administration. Particulars: 6 hours after intramuscular administration, Luc mRNA and H10 mRNA. The format is in vivo.
Series [3] relates to rats. Description: Cytokine induction (IP-10) in rats after intravenous administration. The format is in vivo. Particulars: rat, 6 hours after administration of hEPO nanoparticle compositions, 2.0 mpk. As to the method: as §1, §2
Series [4] concerns mice. Briefly: Cytokine induction (IL-6, IP-10) in mice after intravenous administration. The format is in vivo. More on the design: IL-6 / IP-10: unit not given here. Particulars: 0.5 mpk; for IL-6 / IP-10: 6 hours; for Cytokine expression (pg/ml) IL-6 (6 h) / Cytokine expression (pg/ml) IP-10 (6 h): hEPO mRNA. The method, boiled down:
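Nanoparticle compositions given intravenously to mice at 0.5 mpk; serum cytokine concentrations measured at 6 hours, with MC3 formulation and PBS as comparators.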

As to `CCCCCCCCCCCOC(=O)CCCCCN(CCO)CCCCCCCC(=O)OC(CCCCCCCC)CCCCCCCC` [Compound 25, Heptadecan-9-yl 8-((2-hydroxyethyl)(6-oxo-6-(undecyloxy)hexyl)amino)octanoate], the hEPO expression in series [1] (i.v., 0.2 mpk, 0.25 h) came to 0 pg/mL; in series [1] (i.v., 0.2 mpk, 0.5 h) it was 19553 pg/mL; in series [1] (i.v., 0.2 mpk, 1 h) it was 434299 pg/mL; in series [1] (i.v., 0.2 mpk, 2 h), 2042807 pg/mL; in series [1] (i.v., 0.2 mpk, 4 h), 3176560 pg/mL; in series [1] (i.v., 0.2 mpk, 8 h) it was 2631633 pg/mL. The hEPO expression stood at 869374 pg/mL in series [1] (i.v., 0.2 mpk, 24 h) and 103089 pg/mL in series [1] (i.v., 0.2 mpk, 48 h). For the same compound, the “Total flux (p/s) 0.001 mpk Dose” value in series [2] turned out to be 3.53E+06 p/s. For the same compound, the “Total flux (p/s) 0.01 mpk Dose” value in series [2] came out at 9.96E+07 p/s. In addition, the “IP-10” value is recorded as 533.5 pg/mL in series [3] and 1194.13 in series [4]. The compound also showed an IL-6 in series [4] of 233.45.

In the case of `CCCCCC=CCC=CCCCCCCCCC(CCCCCCCCC=CCC=CCCCCC)OC(=O)CCCN(C)C` (centres unmarked) [MC3, heptatriaconta-6,9,28,31-tetraen-19-yl 4-(dimethylamino)butanoate, reference compound], the “hEPO expression” value in series [1] (6 h, 2 mpk, intravenous) was found to be 1.33e+07 pg/mL; in series [1] (i.v., 0.2 mpk, 0.25 h), 0 pg/mL; in series [1] (i.v., 0.2 mpk, 0.5 h) it was 42457 pg/mL; in series [1] (i.v., 0.2 mpk, 1 h), 93720 pg/mL; in series [1] (i.v., 0.2 mpk, 2 h), 524093 pg/mL; in series [1] (i.v., 0.2 mpk, 4 h) it was 601307 pg/mL. For the same compound, the hEPO expression is 1536833 pg/mL in series [1] (i.v., 0.2 mpk, 8 h); 703619 pg/mL in series [1] (i.v., 0.2 mpk, 24 h); 64687 pg/mL in series [1] (i.v., 0.2 mpk, 48 h). Besides, the “Lipid/MC3 hEPO conc. ratio 0.2 mpk” value in series [1] (rats, intravenous, 0.2 mpk, 6 hours) was found to be 1. Also, the “Lipid/MC3 hEPO conc. ratio 2 mpk” value in series [1] (rats, intravenous, 2 mpk, 6 hours) came to 1. In addition, in series [2], the “Total flux (p/s) 0.001 mpk Dose” value came to 2.76E+06 p/s. For the same compound, the “Total flux (p/s) 0.01 mpk Dose” value in series [2] was determined as 3.68E+07 p/s. Further, the figures for the “IP-10” value in series [3] and in series [4] were 688.3 pg/mL and 504.90, respectively. Further, in series [4], the IL-6 was 124.42. Also, the “Cytokine expression (pg/ml) IL-6 (6 h)” value in series [4] was determined as 19.85 pg/mL. In addition, in series [4], the “Cytokine expression (pg/ml) IP-10 (6 h)” value was 117.94 pg/mL.

For `CCCCCCCCCOC(=O)CCCCCCCN(CCO)CCCCCCCC(=O)OC(CCCCCCCC)CCCCCCCC` [Compound 18, Heptadecan-9-yl 8-((2-hydroxyethyl)(8-(nonyloxy)-8-oxooctyl)amino)octanoate], the hEPO expression turned out to be 20227 pg/mL in series [1] (i.v., 0.2 mpk, 0.25 h); 20743 pg/mL in series [1] (i.v., 0.2 mpk, 0.5 h); 194353 pg/mL in series [1] (i.v., 0.2 mpk, 1 h); 238107 pg/mL in series [1] (i.v., 0.2 mpk, 2 h); 514807 pg/mL in series [1] (i.v., 0.2 mpk, 4 h); 915320 pg/mL in series [1] (i.v., 0.2 mpk, 8 h). Besides, the hEPO expression in series [1] (i.v., 0.2 mpk, 24 h) is on record as 412051 pg/mL; in series [1] (i.v., 0.2 mpk, 48 h), 52361 pg/mL. For the same compound, in series [2], the “Total flux (p/s) 0.01 mpk Dose” value stood at 8.84E+07 p/s. Moreover, the “IP-10” value in series [3] is recorded as 517.3 pg/mL. The compound further had an IL-6 in series [4] of 78.76. The “Cytokine expression (pg/ml) IL-6 (6 h)” value in series [4] is 10.16 pg/mL. Besides, the “Cytokine expression (pg/ml) IP-10 (6 h)” value in series [4] was 299.93 pg/mL.

Source of the values: patent US12404232B2, “Compounds and compositions for intracellular delivery of therapeutic agents” (ModernaTX, Inc., priority 2015, dated 2025).
